pIC50: −log10 of the molar value. Where two headings read alike, the source gives them in different places.

Consider nine compounds from US20240294541A1, “COMPOUNDS CONSTITUTING C20-MODIFIED SALINOMYCIN DERIVATIVES, A METHOD FOR OBTAINING THE SAME, A COMPOSITION CONTAINING THE SAME AND A USE OF SAID COMPOUNDS” (FILECLO SPOLKA Z OGRANICZONA ODPOWIEDZIALNOSCIA, priority 2021, published 2024).

What all share (assay type): cell-based
In experiment [1] the test system is SNU-16 (human gastric cancer). Description: cells. Particulars: for pIC50: Homo sapiens, SNU-16, 72 h with compound, MTT, n/a = non-active compound, read-out: SNU-16 IC50; for SNU-16 SI: selectivity coefficient vs normal BALB/3T3 cells; for IC50: Table 4, SNU-16 human gastric cancer cells, read-out: IC50 (nM) SNU-16.
Experiment [2] relates to Hs294T (human melanoma). Nature of the experiment: cells. The conditions noted are these: for pIC50: Homo sapiens, 72 h with compound, SRB, n/a = non-active compound, read-out: Hs294T IC50; for pIC50 / IC50: Hs 294T; for Hs294T SI: selectivity coefficient vs normal BALB/3T3 cells; for IC50: Table 4, Hs294T human melanoma cells, read-out: IC50 (nM) Hs294T.
The subject of experiment [3] is MIA PaCa-2 (human pancreatic cancer). Nature of the experiment: cells. The conditions noted are these: for pIC50: Homo sapiens, MIA PaCa-2, 72 h with compound, SRB, n/a = non-active compound, read-out: MIA PaCa-2 IC50; for MIA PaCa-2 SI: selectivity coefficient vs normal BALB/3T3 cells; for IC50: Table 4, MIA PaCa-2 human pancreatic cancer cells, read-out: IC50 (nM) MIA PaCa-2.

Experiment [4] relates to PFSK-1 (malignant primitive neuroectodermal tumour). Description: In vitro cytotoxicity, SRB assay, PFSK-1. The conditions noted are these: for pIC50: Homo sapiens, PFSK-1, 72 h with compound, SRB, n/a = non-active compound, read-out: PFSK-1 IC50; for PFSK-1 SI: selectivity coefficient vs normal BALB/3T3 cells. In general terms: The SRB assay estimates cell density from bound dye.

The subject of experiment [5] is PLC/PRF/5 (human liver cancer). Nature of the experiment: cells. Particulars: for pIC50: Homo sapiens, PLC-PRF-5, 72 h with compound, SRB, n/a = non-active compound, read-out: PLC/PRF/5 IC50; for PLC/PRF/5 SI: selectivity coefficient vs normal BALB/3T3 cells; for IC50: Table 4, PLC/PRF/5 human liver cancer cells, read-out: IC50 (nM) PLC/PRF/5.
Experiment [6] deals with KG-1 (human acute myeloid leukaemia). Description: In vitro cytotoxicity, MTT assay, KG-1. The conditions noted are these: for pIC50: Homo sapiens, 72 h with compound, MTT, n/a = non-active compound; for KG-1 SI: selectivity coefficient vs normal BALB/3T3 cells. (Tetrazolium assays rely on reduction of a dye to a coloured formazan, in cell work by metabolically active cells.)

Experiment [7] relates to A2780 (human ovarian cancer). Description: In vitro cytotoxicity, SRB assay, A2780. The conditions noted are these: for pIC50: Homo sapiens, A2780, 72 h with compound, SRB, n/a = non-active compound, read-out: A2780 IC50; for A2780 SI: selectivity coefficient vs normal BALB/3T3 cells.
The test system of experiment [8] is NCI-H23 (human lung cancer). Nature of the experiment: In vitro cytotoxicity, SRB assay, NCI-H23. The conditions noted are these: for pIC50: Homo sapiens, NCI-H23, 72 h with compound, SRB, n/a = non-active compound, read-out: NCI-H23 IC50; for NCI-H23 SI: selectivity coefficient vs normal BALB/3T3 cells.
Experiment [9] concerns A2780Cis (cisplatin-resistant human ovarian cancer). Nature of the experiment: In vitro cytotoxicity, SRB assay, A2780Cis. The conditions noted are these: for IC50: Homo sapiens, A2780cis, 72 h, read-out: A2780Cis IC50 (nM).
Experiment [10] concerns A375 (human melanoma). Nature of the experiment: In vitro cytotoxicity, SRB assay, A375. The conditions noted are these: for pIC50: Homo sapiens, A-375, 72 h with compound, SRB, n/a = non-active compound, read-out: A375 IC50; for A375 SI: selectivity coefficient vs normal BALB/3T3 cells.
Experiment [11] has as its system BALB/3T3 (normal mouse fibroblasts). Nature of the experiment: In vitro cytotoxicity, SRB assay, normal BALB/3T3 fibroblasts. Particulars: Mus musculus, BALB/3T3; normal cells; 72 h with compound, SRB; n/a = non-active compound; read-out: BALB/3T3 IC50.
Experiment [12] has as its system NCI-H358 (human lung cancer). Description: cells. The conditions noted are these: Table 4; NCI-H358 human lung cancer cells; read-out: IC50 (nM) NCI-H358.

With `CC[C@@H](C(=O)[C@@H](C)[C@@H](O)[C@H](C)[C@@H]1O[C@@H]([C@@H](CC)C(=O)O)CC[C@@H]1C)[C@H]1O[C@]2(C=C[C@@H](NC(=O)Nc3ccccc3C(F)(F)F)[C@]3(CC[C@@](C)([C@H]4CC[C@](O)(CC)[C@H](C)O4)O3)O2)[C@H](C)C[C@@H]1C` [FLC-00381-1], in experiment [1], the pIC50 was 7.20 and the “SNU-16 SI” value is reported as 2.5. Also, in [2], the pIC50 was 6.86 and the “Hs294T SI” value was 1.2. Also, in [3], the pIC50 was 7.16 and the “MIA PaCa-2 SI” value was 2.3. Moreover, in [4], the pIC50 is 7.30 and the “PFSK-1 SI” value was 3.2. For the same compound, in experiment [5], the pIC50 was 7.20 and the “PLC/PRF/5 SI” value came to 2.5. Moreover, in [6], the pIC50 was 7.44 and the “KG-1 SI” value is 4.4. Besides, in experiment [7], the pIC50 was 7.87 and the “A2780 SI” value was 11.9. Moreover, in experiment [8], the pIC50 is 7.33 and the “NCI-H23 SI” value is listed as 3.4. In experiment [9], the “A2780Cis RI” value is recorded as 0.5, the “A2780Cis SI” value is 21.7 and the IC50 was found to be 7.34 nM. In addition, in [10], the pIC50 was 6.72 and the “A375 SI” value was 0.8. In addition, in experiment [11], the pIC50 was 6.80.

As to `CC[C@@H](C(=O)[C@@H](C)[C@@H](O)[C@H](C)[C@@H]1O[C@@H]([C@@H](CC)C(=O)O)CC[C@@H]1C)[C@H]1O[C@]2(C=C[C@@H](NC(=S)Nc3ccc(C)cc3)[C@]3(CC[C@@](C)([C@H]4CC[C@](O)(CC)[C@H](C)O4)O3)O2)[C@H](C)C[C@@H]1C` [FLC-00382-1], in experiment [1], the pIC50 is 8.29 and the “SNU-16 SI” value was 10.0. In experiment [2], the pIC50 was 7.21 and the “Hs294T SI” value is listed as 0.8. Also, in experiment [3], the pIC50 is 7.44 and the “MIA PaCa-2 SI” value turned out to be 1.4. Further, in experiment [4], the pIC50 was 8.43 and the “PFSK-1 SI” value is 13.8. Moreover, in experiment [5], the pIC50 was 8.29 and the “PLC/PRF/5 SI” value amounted to 10.0. In experiment [6], the pIC50 was 8.01 and the “KG-1 SI” value is reported as 5.2. Also, in [7], the pIC50 is 9.08 and the “A2780 SI” value was determined as 61.4. Besides, in experiment [8], the pIC50 was 8.41 and the “NCI-H23 SI” value is 13.2. In addition, in experiment [9], the “A2780Cis RI” value is recorded as 0.4, the “A2780Cis SI” value is listed as 157.5 and the IC50 came out at 0.33 nM. In addition, in experiment [10], the pIC50 is 7.35 and the “A375 SI” value was 1.2. Besides, the pIC50 in experiment [11] was 7.29.

With `CC[C@@H](C(=O)[C@@H](C)[C@@H](O)[C@H](C)[C@@H]1O[C@@H]([C@@H](CC)C(=O)O)CC[C@@H]1C)[C@H]1O[C@]2(C=C[C@@H](NC(=O)NCc3ccc(F)cc3)[C@]3(CC[C@@](C)([C@H]4CC[C@](O)(CC)[C@H](C)O4)O3)O2)[C@H](C)C[C@@H]1C` [FLC-00383-1], in experiment [1], the pIC50 is 7.69 and the “SNU-16 SI” value was determined as 8.6. For the same compound, in [2], the pIC50 was 6.61 and the “Hs294T SI” value came out at 0.7. Also, in experiment [3], the pIC50 is 7.32 and the “MIA PaCa-2 SI” value came to 3.6. In experiment [4], the pIC50 was 7.59 and the “PFSK-1 SI” value was 6.7. In experiment [5], the pIC50 was 8.47 and the “PLC/PRF/5 SI” value was determined as 51.7. In addition, in experiment [6], the pIC50 is 7.51 and the “KG-1 SI” value came out at 5.7. In experiment [7], the pIC50 was 8.20 and the “A2780 SI” value is 27.2. Besides, in experiment [8], the pIC50 is 7.61 and the “NCI-H23 SI” value amounted to 7.0. In [9], the “A2780Cis RI” value was 0.7, the “A2780Cis SI” value is reported as 39.0 and the IC50 was found to be 4.45 nM. In experiment [10], the pIC50 is 6.69 and the “A375 SI” value stood at 0.8. For the same compound, the pIC50 in [11] was 6.76.

Take `CC[C@@H](C(=O)[C@@H](C)[C@@H](O)[C@H](C)[C@@H]1O[C@@H]([C@@H](CC)C(=O)O)CC[C@@H]1C)[C@H]1O[C@]2(C=C[C@@H](NC(=O)NC3CCCCC3)[C@]3(CC[C@@](C)([C@H]4CC[C@](O)(CC)[C@H](C)O4)O3)O2)[C@H](C)C[C@@H]1C` [FLC-00384-1]: in experiment [1], the pIC50 was 7.68 and the “SNU-16 SI” value is 5.0. Besides, in experiment [2], the pIC50 was 6.85 and the “Hs294T SI” value amounted to 0.7. Further, in [3], the pIC50 is 7.20 and the “MIA PaCa-2 SI” value came out at 1.7. In addition, in experiment [4], the pIC50 is 8.00 and the “PFSK-1 SI” value is recorded as 10.5. Moreover, in experiment [5], the pIC50 is 7.55 and the “PLC/PRF/5 SI” value is listed as 3.7. In experiment [6], the pIC50 is 7.71 and the “KG-1 SI” value is listed as 5.3. Also, in experiment [7], the pIC50 is 8.39 and the “A2780 SI” value is 25.9. In [8], the pIC50 was 7.56 and the “NCI-H23 SI” value was 3.8. For the same compound, in [9], the “A2780Cis RI” value is recorded as 0.3, the “A2780Cis SI” value was found to be 80.0 and the IC50 turned out to be 1.31 nM. For the same compound, in experiment [10], the pIC50 is 6.92 and the “A375 SI” value is reported as 0.9. The pIC50 in experiment [11] was 6.98.

For the compound `CC[C@@H](C(=O)[C@@H](C)[C@@H](O)[C@H](C)[C@@H]1O[C@@H]([C@@H](CC)C(=O)O)CC[C@@H]1C)[C@H]1O[C@]2(C=C[C@@H](NC(=S)Nc3cccc(C(F)(F)F)c3)[C@]3(CC[C@@](C)([C@H]4CC[C@](O)(CC)[C@H](C)O4)O3)O2)[C@H](C)C[C@@H]1C` [FLC-00386-1], the IC50 in experiment [1] was 10.1 nM; in [2] it was 147 nM; in [3] it was 11.3 nM; in experiment [5], 10.2 nM; in experiment [12], 51.3 nM.

For `CC[C@@H](C(=O)[C@@H](C)[C@@H](O)[C@H](C)[C@@H]1O[C@@H]([C@@H](CC)C(=O)O)CC[C@@H]1C)[C@H]1O[C@]2(C=C[C@@H](NC(=S)NC(C)C)[C@]3(CC[C@@](C)([C@H]4CC[C@](O)(CC)[C@H](C)O4)O3)O2)[C@H](C)C[C@@H]1C` [FLC-00387-1], the IC50 came to 10.2 nM in experiment [1]; 162 nM in experiment [2]; 9.71 nM in experiment [3]; 0.7 nM in [5]; 44.4 nM in [12].

For `C=CCOC(=O)N[C@@H]1C=C[C@]2(O[C@H]([C@@H](CC)C(=O)[C@@H](C)[C@@H](O)[C@H](C)[C@@H]3O[C@@H]([C@@H](CC)C(=O)O)CC[C@@H]3C)[C@@H](C)C[C@H]2C)O[C@@]12CC[C@@](C)([C@H]1CC[C@](O)(CC)[C@H](C)O1)O2` [FLC-00425-1•Na], the IC50 turned out to be 420 nM in [1]; 362 nM in experiment [2]; 269 nM in experiment [3]; 26.5 nM in experiment [5]; 234 nM in experiment [12].

On to `CC[C@@H](C(=O)[C@@H](C)[C@@H](O)[C@H](C)[C@@H]1O[C@@H]([C@@H](CC)C(=O)O)CC[C@@H]1C)[C@H]1O[C@]2(C=C[C@@H](NC(=O)Oc3ccccc3)[C@]3(CC[C@@](C)([C@H]4CC[C@](O)(CC)[C@H](C)O4)O3)O2)[C@H](C)C[C@@H]1C` [FLC-00429-1•Na], for which the IC50 in experiment [1] was 168 nM; in [2] it was 115 nM; in experiment [3], 39.8 nM; in [5], 27 nM; in experiment [12] it was 76.1 nM.

For the compound `CC[C@@H](C(=O)[C@@H](C)[C@@H](O)[C@H](C)[C@@H]1O[C@@H]([C@@H](CC)C(=O)O)CC[C@@H]1C)[C@H]1O[C@]2(C=C[C@@H](NC(=O)OCc3ccccc3)[C@]3(CC[C@@](C)([C@H]4CC[C@](O)(CC)[C@H](C)O4)O3)O2)[C@H](C)C[C@@H]1C` [FLC-00431-1•Na], the IC50 in experiment [1] is 143 nM; in [2], 115 nM; in [3], 28.9 nM; in experiment [5] it was 5.8 nM; in experiment [12], 56.1 nM.
